The text below walks through data of US20040102364A1, “Backbone cyclized radiolabelled somatostatin analogs” (priority 2001, published 2004).

Where two headings read alike, the source gives them in different places.

In one assay the target is SST-R2 (Homo sapiens, UniProt P30874). As to the kind of experiment: Inhibition of SRIF binding to SST-R2 (species not stated). The note with it: for inhibition at 10 pM: read-out: IC50 Screen SRIF Inhibited (%) 0.01 nM; for inhibition at 0.0001 µM: read-out: IC50 Screen SRIF Inhibited (%) 0.1 nM; for inhibition at 0.001 µM: read-out: IC50 Screen SRIF Inhibited (%) 1 nM. Here is the method: The SST analogs were tested for their potency in inhibition of the binding of ^125I-Tyr^11-SRIF (based on the method described by Raynor et. al., Molecular Pharmacology 43: 838, 1993) to membrane preparations expressing the transmembranal SST receptors (SST-R1, 2, 3, 4 or 5). The receptor preparations used for these tests were either from the cloned human receptors selectively and stably expressed in Chinese Hamster Ovary (CHO) cells or from cell lines naturally expressing the SST-Rs. […] The binding reactions were filtered, the filters were washed and the bound radioactivity was counted in β counter after addition of scintillation solution. […]

A further assay has as its target T1, human cloned SST-R2 (Homo sapiens, UniProt P30874).
T1 construct: expressed in transfected cells; host or cells: CHO cells
Kind of assay: Inhibition of 125I-Tyr11-SRIF binding to cloned human SST-R2 membranes (CHO cells). How it is done:
The SST analogs were tested for their potency in inhibition of the binding of ^125I-Tyr^11-SRIF (based on the method described by Raynor et. al., Molecular Pharmacology 43: 838, 1993) to membrane preparations expressing the transmembranal SST receptors (SST-R1, 2, 3, 4 or 5). The receptor preparations used for these tests were either from the cloned human receptors selectively and stably expressed in Chinese Hamster Ovary (CHO) cells or from cell lines naturally expressing the SST-Rs. […] The binding reactions were filtered, the filters were washed and the bound radioactivity was counted in β counter after addition of scintillation solution.

The mark [1] stands for this setting: Quick Screen, 10 nM, SST-R2, read-out: Quick Screen SRIF Inhibited (%) 10 nM.
[2] abbreviates: Quick Screen, 100 nM, SST-R2, read-out: Quick Screen SRIF Inhibited (%) 100 nM.
Setting [3] is: read-out: IC50 Screen SRIF Inhibited (%) 10 nM.
Setting [4] is: read-out: IC50 Screen SRIF Inhibited (%) 100 nM.
[5] abbreviates: human cloned receptor, read-out: Concentration (nM) of SST analogs to inhibit SRIF binding by 50%, SST-R 2.

T1 sequence (P30874 whole entry): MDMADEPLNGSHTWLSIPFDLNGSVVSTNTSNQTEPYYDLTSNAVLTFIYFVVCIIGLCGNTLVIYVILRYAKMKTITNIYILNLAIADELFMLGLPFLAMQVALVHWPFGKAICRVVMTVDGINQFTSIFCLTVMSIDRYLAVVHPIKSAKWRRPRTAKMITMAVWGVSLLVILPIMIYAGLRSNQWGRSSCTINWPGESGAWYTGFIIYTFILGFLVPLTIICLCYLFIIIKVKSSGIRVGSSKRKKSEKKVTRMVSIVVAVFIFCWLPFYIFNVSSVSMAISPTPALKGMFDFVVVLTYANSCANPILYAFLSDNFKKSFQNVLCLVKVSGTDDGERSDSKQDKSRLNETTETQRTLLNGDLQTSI
SST-R2, sequence (P30874 whole entry): as above

Turning to “In-DTPA-Gly-Phe(C3**)-Cys*-Phe-(D)Trp-Lys-Thr-Cys*-Phe(N3**)-NH2 [PTR 3347]”, the “SRIF Inhibited (%) 10 nM” value at SST-R2 (10 nM, SST-R2) was found to be 38%. The “SRIF Inhibited (%) 100 nM” value on SST-R2 (100 nM, SST-R2) is 51%.
For the compound `C[C@@H](O)[C@@H]1NC(=O)[C@H](CCCCN)NC(=O)[C@@H](Cc2c[nH]c3ccccc23)NC(=O)[C@H](Cc2c[nH]c3ccccc23)NC(=O)[C@H](Cc2ccccc2)NC(=O)[C@@H](NC(=O)CNC(=O)CN(CCN(CCN(CC(=O)O)CC(=O)O)CC(=O)O)CC(=O)O)CCNC(=O)CCCN(CC(N)=O)C(=O)[C@H](Cc2ccccc2)NC1=O` [PTR 3319, In-DTPA-Gly-Dab*-Phe-Trp-(D)Trp-Lys-Thr-Phe-GlyC3*-NH2], the inhibition at 0.01 µM was 65% on SST-R2 (setting [1]) and 57% at SST-R2 (setting [3]). Also, the inhibition at 0.1 µM stood at 83% on SST-R2 (setting [2]) and 86% at SST-R2 (setting [4]). For the same compound, the inhibition at 10 pM at SST-R2 is -8.5%. Moreover, at SST-R2, the inhibition at 0.0001 µM is -0.67%. The inhibition at 0.001 µM on SST-R2 stood at 30%.
With `C[C@@H](O)[C@@H]1NC(=O)[C@H](CCCCN)NC(=O)[C@@H](Cc2c[nH]c3ccccc23)NC(=O)[C@H](Cc2c[nH]c3ccccc23)NC(=O)[C@H](Cc2ccccc2)NC(=O)[C@@H](NC(=O)CN(CCN(CCN(CC(=O)O)CC(=O)O)CC(=O)O)CC(=O)O)CCNC(=O)CCCN(CC(N)=O)C(=O)[C@H](Cc2ccccc2)NC1=O` [PTR 3337, In-DTPA-Dab*-Phe-Trp-(D)Trp-Lys-Thr-Phe-GlyC3*-NH2], the inhibition at 0.01 µM on SST-R2 (setting [1]) was determined as 53%. Also, the inhibition at 0.1 µM at SST-R2 (setting [2]) worked out at 87%. Besides, on SST-R2, the inhibition at 10 pM was -8.5%, the inhibition at 0.0001 µM amounted to 10% and the inhibition at 0.001 µM was found to be 37%. Further, the inhibition at 0.01 µM on SST-R2 (setting [3]) was determined as 69%. Moreover, on SST-R2 (setting [4]), the inhibition at 0.1 µM came out at 89%.
For “ReO-MA-Dpr(Gly)-Dab*-Phe-Trp-(D)Trp-Lys-Thr-Phe-GlyC3*-NH2 [PTR 3395]”, the IC50 at human cloned SST-R2 (setting [5]) amounted to 1.14 nM.
Regarding “In-DTPA-5-aminopentanoic acid-Dab*-Phe-Trp-(D)Trp-Lys-Thr-Phe-GlyC3*-NH2 [PTR 3343]”, the “IC50 Screen SRIF Inhibited (%) 0.01 nM” value on SST-R2 (IC50 Screen, 0.01 nM, SST-R2) is given as −16%. Further, the “IC50 Screen SRIF Inhibited (%) 0.1 nM” value on SST-R2 (IC50 Screen, 0.1 nM, SST-R2) is listed as −3.8%. The “IC50 Screen SRIF Inhibited (%) 1 nM” value at SST-R2 (IC50 Screen, 1 nM, SST-R2) is recorded as 10%. Further, the “IC50 Screen SRIF Inhibited (%) 10 nM” value at SST-R2 (IC50 Screen, 10 nM, SST-R2) stood at 44%. In addition, on SST-R2 (IC50 Screen, 100 nM, SST-R2), the “IC50 Screen SRIF Inhibited (%) 100 nM” value came to 76%. The “Quick Screen SRIF Inhibited (%) 10 nM” value on SST-R2 (Quick Screen, 10 nM, SST-R2) was 37%. In addition, the “Quick Screen SRIF Inhibited (%) 100 nM” value on SST-R2 (Quick Screen, 100 nM, SST-R2) is 79%.
Turning to “In-DTPA-GABA-Phe(C3**)-Cys*-Phe-(D)Trp-Lys-Thr-Cys*-Phe(N3 **)-NH2 [PTR 3351]”, at SST-R2 (10 nM, SST-R2), the “SRIF Inhibited (%) 10 nM” value worked out at 5%. Moreover, the “SRIF Inhibited (%) 100 nM” value at SST-R2 (100 nM, SST-R2) is 53%.
Consider `C[C@@H](O)[C@@H]1NC(=O)[C@H](CCCCN)NC(=O)[C@@H](Cc2c[nH]c3ccccc23)NC(=O)[C@H](Cc2c[nH]c3ccccc23)NC(=O)[C@H](Cc2ccccc2)NC(=O)[C@@H](NC(=O)CCNC(=O)CN(CCN(CCN(CC(=O)O)CC(=O)O)CC(=O)O)CC(=O)O)CCNC(=O)CCCN(CC(N)=O)C(=O)[C@H](Cc2ccccc2)NC1=O` [PTR 3339, In-DTPA-b-Ala-Dab*-Phe-Trp-(D)Trp-Lys-Thr-Phe-GlyC3*-NH2], for which the figures for the inhibition at 0.01 µM at SST-R2 (setting [1]) and on SST-R2 (setting [3]) were 27% and 52%, respectively. Further, the inhibition at 0.1 µM was determined as 69% at SST-R2 (setting [2]) and 78% on SST-R2 (setting [4]). Also, at SST-R2, the inhibition at 10 pM was -11%. In addition, at SST-R2, the inhibition at 0.0001 µM was 3%. For the same compound, the inhibition at 0.001 µM at SST-R2 is 17%.
In the case of “In-DTPA-5-aminopentanoic acid-Phe(C3**)-Cys*-Phe-(D)Trp-Lys-Thr-Cys*-Phe(N3**)-NH2 [PTR 3353]”, the “SRIF Inhibited (%) 10 nM” value on SST-R2 (10 nM, SST-R2) is listed as 14%. On SST-R2 (100 nM, SST-R2), the “SRIF Inhibited (%) 100 nM” value came to 59%.
“In-DTPA-b-Ala-Phe(C3**)-Cys*-Phe-(D)Trp-Lys-Thr-Cys*-Phe(N3**)-NH2 [PTR 3349]”: the “SRIF Inhibited (%) 10 nM” value at SST-R2 (10 nM, SST-R2) is given as 20%. Besides, the “SRIF Inhibited (%) 100 nM” value at SST-R2 (100 nM, SST-R2) is 54%.
Take `C[C@@H](O)[C@@H]1NC(=O)[C@H](CCCCN)NC(=O)[C@@H](Cc2c[nH]c3ccccc23)NC(=O)[C@H](Cc2c[nH]c3ccccc23)NC(=O)[C@H](Cc2ccccc2)NC(=O)[C@@H](NC(=O)CCCNC(=O)CN(CCN(CCN(CC(=O)O)CC(=O)O)CC(=O)O)CC(=O)O)CCNC(=O)CCCN(CC(N)=O)C(=O)[C@H](Cc2ccccc2)NC1=O` [PTR 3341, In-DTPA-GABA-Dab*-Phe-Trp-(D)Trp-Lys-Thr-Phe-GlyC3*-NH2]: on SST-R2 (setting [1]), the inhibition at 0.01 µM worked out at 35%. At SST-R2 (setting [2]), the inhibition at 0.1 µM came out at 76%. In addition, on SST-R2, the inhibition at 10 pM was -9.5%, the inhibition at 0.0001 µM is -4.8% and the inhibition at 0.001 µM turned out to be 12%. Further, at SST-R2 (setting [3]), the inhibition at 0.01 µM was 44%. The inhibition at 0.1 µM at SST-R2 (setting [4]) was found to be 76%.
Take `C[C@@H](O)[C@@H]1NC(=O)[C@H](CCCCN)NC(=O)[C@@H](Cc2c[nH]c3ccccc23)NC(=O)[C@H](Cc2ccccc2)NC(=O)[C@@H]2CSSC[C@H](NC1=O)C(=O)N([C@@H](Cc1ccccc1)C(N)=O)CCCNC(=O)CCCN(C(=O)CNC(=O)CNC(=O)CNC(=O)CS)[C@@H](Cc1ccccc1)C(=O)N2` [PTR 3261, MAG3-PheC3-Cys-Phe-(D)Trp-Lys-Thr-Cys-PheN3-NH2]: the IC50 on human cloned SST-R2 (human cloned SST-R2, 95% confidence interval given, read-out: IC50 calculated from the binding results of Table 3) was 119 nM; at human cloned SST-R2 (setting [5]), 100 nM. Moreover, the “Total Bound (3-[125I]tyrosyl11)somatostatin-14 (cpm), Run 1” value at human cloned SST-R2 (peptide conc. 10 nM) is 8335 cpm; on human cloned SST-R2 (peptide conc. 100 nM), 5398 cpm; on human cloned SST-R2 (peptide conc. 1000 nM), 1941 cpm; at human cloned SST-R2 (peptide conc. 10000 nM) it was 917 cpm. Besides, the “Total Bound (3-[125I]tyrosyl11)somatostatin-14 (cpm), Run 2” value at human cloned SST-R2 (peptide conc. 10 nM) was found to be 8820 cpm; at human cloned SST-R2 (peptide conc. 100 nM), 5328 cpm; at human cloned SST-R2 (peptide conc. 1000 nM), 3169 cpm; at human cloned SST-R2 (peptide conc. 10000 nM), 1106 cpm. In addition, the “Total Bound (3-[125I]tyrosyl11)somatostatin-14 (cpm), Run 3” value at human cloned SST-R2 (peptide conc. 10 nM) is listed as 8098 cpm; at human cloned SST-R2 (peptide conc. 100 nM), 5679 cpm; on human cloned SST-R2 (peptide conc. 1000 nM), 2024 cpm; at human cloned SST-R2 (peptide conc. 10000 nM) it was 2281 cpm.
With “In-DTPA-3-aminomethylbenzoic acid-Phe(C3**)-Cys*-Phe-(D)Trp-Lys-Thr-Cys*-Phe(N3**)-NH2 [PTR 3355]”, the “SRIF Inhibited (%) 10 nM” value at SST-R2 (10 nM, SST-R2) is 8%. For the same compound, the “SRIF Inhibited (%) 100 nM” value at SST-R2 (100 nM, SST-R2) came to 34%.
